What was measured:
[1] = target: T1, HiBit-BRG1 fusion protein (Homo sapiens, UniProt P51532); assay: HiBiT-BRG1 cell-based degradation assay (Nano-Glo HiBiT Lytic Detection, 24 h); details: HeLa cells expressing HiBit-BRG1 and LgBit; for DC50: read-out: BRG1 HiBit Degradation IC50; for Dmax: HeLa, top dose 30 μM, read-out: BRG1 HiBit Degradation Maximum measured
T1 construct: expressed in transfected cells
Method in brief: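 Degradation is scaled from DMSO-treated cells (0%) to cells given 2 μM of a known BRM/BRG1 degrader (100%). HeLa cells stably carrying HiBiT-BRG1 plus LgBiT (5000/well) were lysed with Nano-Glo HiBiT detection reagent, shaken 10 min at RT, and luminescence read.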

HiBit-BRM fusion protein = target: T2, HiBit-BRM fusion protein (Homo sapiens, UniProt P51531); assay: HiBiT-BRM cell-based degradation assay (Nano-Glo HiBiT Lytic Detection, 24 h); details: HeLa cells expressing HiBiT-BRM; for DC50: read-out: BRM HiBit Degradation IC50; for BRM HiBit Degradation Maximum measured: top dose 30 μM
T2 construct: expressed in transfected cells
T2 sequence (P51531 whole entry, the tested form may be a part): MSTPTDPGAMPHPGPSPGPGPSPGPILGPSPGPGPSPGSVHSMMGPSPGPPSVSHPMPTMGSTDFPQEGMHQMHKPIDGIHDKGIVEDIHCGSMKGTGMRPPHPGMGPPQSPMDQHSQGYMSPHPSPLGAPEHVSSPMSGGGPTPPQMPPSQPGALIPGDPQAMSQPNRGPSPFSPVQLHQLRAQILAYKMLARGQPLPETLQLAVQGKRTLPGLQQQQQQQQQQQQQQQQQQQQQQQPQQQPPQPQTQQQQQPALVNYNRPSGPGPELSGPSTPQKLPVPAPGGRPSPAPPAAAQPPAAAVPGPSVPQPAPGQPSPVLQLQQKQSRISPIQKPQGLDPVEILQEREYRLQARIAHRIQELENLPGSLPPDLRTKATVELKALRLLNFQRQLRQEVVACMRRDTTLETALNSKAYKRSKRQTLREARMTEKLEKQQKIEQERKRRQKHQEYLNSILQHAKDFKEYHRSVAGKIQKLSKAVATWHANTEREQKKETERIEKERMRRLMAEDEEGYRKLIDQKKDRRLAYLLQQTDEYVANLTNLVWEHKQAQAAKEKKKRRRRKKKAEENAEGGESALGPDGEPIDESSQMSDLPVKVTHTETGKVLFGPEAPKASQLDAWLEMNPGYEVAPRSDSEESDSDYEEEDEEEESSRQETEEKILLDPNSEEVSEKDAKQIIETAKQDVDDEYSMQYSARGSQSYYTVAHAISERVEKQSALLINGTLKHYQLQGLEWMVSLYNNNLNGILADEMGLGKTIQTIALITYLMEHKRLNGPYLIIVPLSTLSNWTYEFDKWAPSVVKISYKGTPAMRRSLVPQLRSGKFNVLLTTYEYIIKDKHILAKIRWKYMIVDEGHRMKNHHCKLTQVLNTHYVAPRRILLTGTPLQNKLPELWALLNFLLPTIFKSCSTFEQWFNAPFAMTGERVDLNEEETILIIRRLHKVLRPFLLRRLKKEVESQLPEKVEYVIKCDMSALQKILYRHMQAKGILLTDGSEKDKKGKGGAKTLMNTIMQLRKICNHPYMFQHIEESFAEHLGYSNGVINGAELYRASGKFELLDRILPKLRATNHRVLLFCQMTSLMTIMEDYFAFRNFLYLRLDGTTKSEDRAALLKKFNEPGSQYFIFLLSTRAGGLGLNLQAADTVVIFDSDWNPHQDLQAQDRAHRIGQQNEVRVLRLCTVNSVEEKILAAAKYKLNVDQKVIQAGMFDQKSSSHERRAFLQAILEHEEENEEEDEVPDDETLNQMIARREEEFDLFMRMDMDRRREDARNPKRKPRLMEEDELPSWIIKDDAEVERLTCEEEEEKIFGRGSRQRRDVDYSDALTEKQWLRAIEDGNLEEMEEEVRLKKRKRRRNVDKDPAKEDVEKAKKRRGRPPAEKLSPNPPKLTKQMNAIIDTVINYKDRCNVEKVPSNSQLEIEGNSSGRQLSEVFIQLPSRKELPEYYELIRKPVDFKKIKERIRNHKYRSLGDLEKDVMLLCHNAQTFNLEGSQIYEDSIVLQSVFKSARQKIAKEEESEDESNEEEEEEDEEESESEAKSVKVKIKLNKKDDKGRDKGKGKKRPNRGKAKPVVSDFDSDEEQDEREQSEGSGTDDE
Method in brief: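 Stable HiBiT-BRM HeLa line; 24 h compound exposure, top final 30 μM, 3-fold, 10 pts in duplicate. Lytic HiBiT/LgBiT luminescence readout. % degradation vs DMSO (0%) and 2 μM known BRM/BRG1 degrader (100%).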

T1 sequence (P51532 whole entry, the tested form may be a part): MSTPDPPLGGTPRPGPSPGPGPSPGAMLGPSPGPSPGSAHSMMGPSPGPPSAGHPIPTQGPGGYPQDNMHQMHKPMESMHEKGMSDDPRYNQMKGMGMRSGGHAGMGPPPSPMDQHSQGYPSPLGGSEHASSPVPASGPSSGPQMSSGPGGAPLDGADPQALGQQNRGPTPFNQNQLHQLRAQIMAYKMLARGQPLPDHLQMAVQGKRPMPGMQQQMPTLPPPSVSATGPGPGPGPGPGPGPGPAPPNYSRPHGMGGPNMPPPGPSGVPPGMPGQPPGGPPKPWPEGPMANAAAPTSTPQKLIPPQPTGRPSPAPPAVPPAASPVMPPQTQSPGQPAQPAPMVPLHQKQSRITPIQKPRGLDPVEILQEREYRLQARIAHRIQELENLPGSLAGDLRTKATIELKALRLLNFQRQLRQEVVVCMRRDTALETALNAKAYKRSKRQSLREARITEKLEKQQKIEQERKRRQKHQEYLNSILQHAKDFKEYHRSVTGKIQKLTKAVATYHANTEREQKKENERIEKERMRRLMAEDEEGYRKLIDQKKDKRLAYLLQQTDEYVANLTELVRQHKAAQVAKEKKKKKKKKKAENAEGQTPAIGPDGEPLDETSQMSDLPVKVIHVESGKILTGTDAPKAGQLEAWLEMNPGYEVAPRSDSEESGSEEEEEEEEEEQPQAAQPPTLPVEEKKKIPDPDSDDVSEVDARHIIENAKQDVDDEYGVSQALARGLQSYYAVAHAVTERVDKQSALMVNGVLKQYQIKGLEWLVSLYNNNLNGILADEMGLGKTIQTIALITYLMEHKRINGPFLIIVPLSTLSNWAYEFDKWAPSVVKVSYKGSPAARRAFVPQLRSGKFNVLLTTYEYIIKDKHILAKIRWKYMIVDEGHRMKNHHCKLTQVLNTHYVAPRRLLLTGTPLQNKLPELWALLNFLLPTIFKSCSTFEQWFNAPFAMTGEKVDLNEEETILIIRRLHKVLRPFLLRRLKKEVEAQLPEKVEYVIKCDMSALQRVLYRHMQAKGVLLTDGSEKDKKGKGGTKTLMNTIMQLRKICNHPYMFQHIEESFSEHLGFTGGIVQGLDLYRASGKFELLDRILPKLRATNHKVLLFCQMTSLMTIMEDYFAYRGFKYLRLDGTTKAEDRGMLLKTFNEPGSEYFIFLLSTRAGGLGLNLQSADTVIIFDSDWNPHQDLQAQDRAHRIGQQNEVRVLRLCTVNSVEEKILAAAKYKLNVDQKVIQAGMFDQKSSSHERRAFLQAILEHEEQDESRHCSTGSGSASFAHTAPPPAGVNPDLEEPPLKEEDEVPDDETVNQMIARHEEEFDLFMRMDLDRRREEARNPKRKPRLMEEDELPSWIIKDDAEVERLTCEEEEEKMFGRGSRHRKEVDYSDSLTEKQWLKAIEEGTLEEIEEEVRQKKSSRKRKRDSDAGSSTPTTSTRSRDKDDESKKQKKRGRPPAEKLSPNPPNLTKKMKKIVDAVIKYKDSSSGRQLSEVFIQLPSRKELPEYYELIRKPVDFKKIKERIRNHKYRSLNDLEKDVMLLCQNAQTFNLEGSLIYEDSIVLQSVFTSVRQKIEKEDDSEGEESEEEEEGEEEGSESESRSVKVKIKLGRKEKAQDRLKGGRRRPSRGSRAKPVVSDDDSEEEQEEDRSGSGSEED

SMILES	DC50 [1] [µM]	Dmax [1] [%]	DC50 (HiBit-BRM fusion protein) [µM]	BRM HiBit Degradation Maximum measured (HiBit-BRM fusion protein)
Cc1ncsc1-c1ccc(CNC(=O)[C@@H]2C[C@@H](O)CN2C(=O)[C@@H](NC(=O)CCCCCCCCCCCCC(=O)NCc2cccc(-c3cccc(-c4csc(NC(=O)CNC(=O)c5ccn(S(C)(=O)=O)c5)n4)c3)c2)C(C)(C)C)cc1 [Compound 118, N1-((S)-1-((2S,4R)-4-hydroxy-2-((4-(4-methylthiazol-5-yl)benzyl)carbamoyl)pyrrolidin-1-yl)-3,3-dimethyl-1-oxobutan-2-yl)-N14-((3′-(2-(2-(1-(methylsulfonyl)-1H-pyrrole-3-carboxamido)acetamido)thiazol-4-yl)-[1,1′-biphenyl]-3-yl)methyl)tetradecanediamide]	0.1 to 1	50 to 75	0.1 to 1	B (‘B’ = Maximum degradation ≥50% and ≤75%)
Cc1ncsc1-c1ccc(CNC(=O)[C@@H]2C[C@@H](O)CN2C(=O)[C@@H](NC(=O)CCCCCNC(=O)C2(c3cc(-c4cccc(-c5csc(NC(=O)CNC(=O)c6ccn(S(C)(=O)=O)c6)n5)c4)ccn3)CC2)C(C)(C)C)cc1 [Compound 100, N-(2-((4-(3-(2-(1-((6-(((S)-1-((2S,4R)-4-hydroxy-2-((4-(4-methylthiazol-5-yl)benzyl)carbamoyl)pyrrolidin-1-yl)-3,3-dimethyl-1-oxobutan-2-yl)amino)-6-oxohexyl)carbamoyl)cyclopropyl)-pyridin-4-yl)phenyl)thiazol-2-yl)amino)-2-oxoethyl)-1-(methylsulfonyl)-1H-pyrrole-3-carboxamide]	< 0.1	> 75	0.1 to 1	A (‘A’ = Maximum degradation >75%)
CS(=O)(=O)n1ccc(C(=O)NCC(=O)Nc2nc(-c3cccc(-c4cccc(CNC(=O)CCCOc5cccc6c5C(=O)N(C5CCC(=O)NC5=O)C6=O)c4)c3)cs2)c1 (stereo not shown) [Compound 30]	> 10	< 50	> 10	C (‘C’ = Maximum degradation <50%)
Cc1ncsc1-c1ccc(CNC(=O)[C@@H]2C[C@@H](O)CN2C(=O)[C@@H](NC(=O)COCC(=O)N2CCN(c3cc(-c4cccc(-c5csc(NC(=O)CNC(=O)c6ccn(S(C)(=O)=O)c6)n5)c4)ccn3)CC2)C(C)(C)C)cc1 [Compound 72, N-[2-[[4-[3-[2-[4-[2-[2-[[(1S)-1-[(2S,4R)-4-hydroxy-2-[[4-(4-methylthiazol-5-yl)phenyl]methylcarbamoyl]pyrrolidine-1-carbonyl]-2,2-dimethyl-propyl]amino]-2-oxo-ethoxy]acetyl]piperazin-1-yl]-4-pyridyl]phenyl]thiazol-2-yl]amino]-2-oxo-ethyl]-1-methylsulfonyl-pyrrole-3-carboxamide]	> 10	< 50	> 10	C (‘C’ = Maximum degradation <50%)
CS(=O)(=O)n1ccc(C(=O)NCC(=O)Nc2nc(-c3cccc(-c4cccc(CNC(=O)CCCCCCOc5cccc6c5C(=O)N(C5CCC(=O)NC5=O)C6=O)c4)c3)cs2)c1 (stereo not shown) [Compound 43, N-(2-((4-(3′-((7-((2-(2,6-dioxopiperidin-3-yl)-1,3-dioxoisoindolin-4-yl)oxy)heptanamido)methyl)-[1,1′-biphenyl]-3-yl)thiazol-2-yl)amino)-2-oxoethyl)-1-(methylsulfonyl)-1H-pyrrole-3-carboxamide]	0.1 to 1	50 to 75	> 10	C (‘C’ = Maximum degradation <50%)
CS(=O)(=O)n1ccc(C(=O)NCC(=O)Nc2nc(-c3cccc(-c4cccc(CNC(=O)CCCCCCCCNc5ccc6c(c5)C(=O)N(C5CCC(=O)NC5=O)C6=O)c4)c3)cs2)c1 (stereo not shown) [Compound 54, N-[2-[[4-[3-[3-[[9-[[2-(2,6-dioxo-3-piperidyl)-1,3-dioxo-isoindolin-5-yl]amino]nonanoylamino]methyl]-phenyl]phenyl]thiazol-2-yl]amino]-2-oxo-ethyl]-1-methylsulfonyl-pyrrole-3-carboxamide]	> 10	< 50	> 10	C (‘C’ = Maximum degradation <50%)
CS(=O)(=O)n1ccc(C(=O)N[C@@H](CCOCCCC(=O)N2CC3(CCN(CCCNc4ccc5c(c4)C(=O)N(C4CCC(=O)NC4=O)C5=O)CC3)C2)C(=O)Nc2nc(-c3ccccc3)cs2)c1 (stereo partly drawn) [Compound 222, (2S)-4-[4-[7-(3-[[2-(2,6-dioxopiperidin-3-yl)-1,3-dioxoisoindol-5-yl]amino]propyl)-2,7-diazaspiro[3.5]nonan-2-yl]-4-oxobutoxy]-2-[(1-methanesulfonylpyrrol-3-yl)formamido]-N-(4-phenyl-1,3-thiazol-2-yl)butanamide; formic acid]	> 10	< 50	> 10	C (‘C’ = Maximum degradation <50%)
CS(=O)(=O)n1ccc(C(=O)NCC(=O)Nc2nc(-c3cccc(-c4ccnc(N5CCN(C(=O)CCOCCOCCOc6ccc7c(c6)C(=O)N(C6CCC(=O)NC6=O)C7=O)CC5)c4)c3)cs2)c1 (stereo not shown) [Compound 73, N-[2-[[4-[3-[2-[4-[3-[2-[2-[2-(2,6-dioxo-3-piperidyl)-1,3-dioxo-isoindolin-5-yl]oxyethoxy]ethoxy]propanoyl]piperazin-1-yl]-4-pyridyl]phenyl]thiazol-2-yl]amino]-2-oxo-ethyl]-1-methylsulfonyl-pyrrole-3-carboxamide]	0.1 to 1	> 75	0.1 to 1	A (‘A’ = Maximum degradation >75%)

Next, values leading:

DC50 [1] [µM]	Dmax [1] [%]	DC50 (HiBit-BRM fusion protein) [µM]	BRM HiBit Degradation Maximum measured (HiBit-BRM fusion protein)	SMILES
> 10	< 50	> 10	C (‘C’ = Maximum degradation <50%)	CS(=O)(=O)n1ccc(C(=O)N[C@@H](COCc2ccc(C(=O)NCCS(=O)(=O)CCNc3cccc4c3C(=O)N(C3CCC(=O)NC3=O)C4=O)cc2)C(=O)Nc2nc(-c3ccccc3)cs2)c1 (stereo partly drawn) [Compound 190, N-[2-(2-[[2-(2,6-dioxopiperidin-3-yl)-1,3-dioxoisoindol-4-yl]amino]ethanesulfonyl)ethyl]-4-[[(2S)-2-[(1-methanesulfonylpyrrol-3-yl)formamido]-2-[(4-phenyl-1,3-thiazol-2-yl)carbamoyl]ethoxy]methyl]benzamide]
> 10	< 50	> 10	C (‘C’ = Maximum degradation <50%)	CS(=O)(=O)n1ccc(C(=O)N[C@@H](CCOCCCC(=O)NCCOCCOCCOCCNC(=O)COc2ccc3c(c2)C(=O)N(C2CCC(=O)NC2=O)C3=O)C(=O)Nc2nc(-c3ccccc3)cs2)c1 (stereo partly drawn) [Compound 273, (2S)-4-(3-[[2-(2-[2-[2-(2-[[2-(2,6-dioxopiperidin-3-yl)-1,3-dioxoisoindol-5-yl]oxy]acetamido)ethoxy]ethoxy]ethoxy)ethyl]carbamoyl]propoxy)-2-[(1-methanesulfonylpyrrol-3-yl)formamido]-N-(4-phenyl-1,3-thiazol-2-yl)butanamide]
> 10	< 50	> 10	C (‘C’ = Maximum degradation <50%)	Cc1c(C(=O)NCC(=O)Nc2nc(-c3cccc(-c4ccnc(N(C)CC(=O)N5CCC(C6CCN(C(=O)COc7cccc8c7C(=O)N(C7CCC(=O)NC7=O)C8=O)CC6)CC5)c4)c3)cs2)cn(S(=O)(=O)C(C)C)c1C (stereo not shown) [Compound 116, N-(2-((4-(3-(2-((2-(1′-(2-((2-(2,6-dioxopiperidin-3-yl)-1,3-dioxoisoindolin-4-yl)oxy)acetyl)-[4,4′-bipiperidin]-1-yl)-2-oxoethyl)(methyl)amino)pyridin-4-yl)phenyl)thiazol-2-yl)amino)-2-oxoethyl)-1-(isopropylsulfonyl)-4,5-dimethyl-1H-pyrrole-3-carboxamide]
> 10	< 50	> 10	C (‘C’ = Maximum degradation <50%)	CS(=O)(=O)n1ccc(C(=O)NCC(=O)Nc2nc(-c3cccc(-c4ccnc(C5(C(=O)NCCCC#Cc6cccc7c6C(=O)N(C6CCC(=O)NC6=O)C7=O)CC5)c4)c3)cs2)c1 (stereo not shown) [Compound 152, N-[5-[2-(2,6-dioxopiperidin-3-yl)-1,3-dioxoisoindol-4-yl]pent-4-yn-1-yl]-1-[4-[3-(2-[2-[(1-methanesulfonylpyrrol-3-yl)formamido]acetamido]-1,3-thiazol-4-yl)phenyl]pyridin-2-yl]cyclopropane-1-carboxamide]
> 10	< 50	> 10	C (‘C’ = Maximum degradation <50%)	CS(=O)(=O)n1ccc(C(=O)N[C@@H](CCOCCCC(=O)NCCCCNc2ccc3c(c2)C(=O)N(C2CCC(=O)NC2=O)C3=O)C(=O)Nc2nc(-c3ccccc3)cs2)c1 (stereo partly drawn) [Compound 282, (2S)-4-[3-[(4-[[2-(2,6-dioxopiperidin-3-yl)-1,3-dioxoisoindol-5-yl]amino]butyl)carbamoyl]propoxy]-2-[(1-methanesulfonylpyrrol-3-yl)formamido]-N-(4-phenyl-1,3-thiazol-2-yl)butanamide]

— patent US12662479B2 (Foghorn Therapeutics Inc., priority 2020, dated 2026)
